Laboratory results reported in patent US20230265151A1, “GIP/GLP1 CO-AGONIST COMPOUNDS” (priority 2020, published 2023).
Like-named read-outs stand apart in the source and are kept apart here. *1 amine or outer side, *2 acyl side, *3 side chain or, on linkers, in order; H or OH if unused. Where a SMILES comes first, the peptide text is derived from it. Side-chain parts run from the residue outwards. [ ]: non-standard residue; d: D form. The star is where a group is joined. Decanoyl(10-(4-HOOC-PhO)) = O=C(O)c1ccc(OCCCCCCCCCC(=O)*)cc1; αMePhe(2-F) = C[C@](N)(Cc1ccccc1F)C(=O)O; γGlu = O=C(O)[C@H](CCC(=O)[*:2])N[*:1]; αMeY = C[C@](N)(Cc1ccc(O)cc1)C(=O)O; αMeL = CC(C)C[C@](C)(N)C(=O)O; Lauroyl = CCCCCCCCCCCC(=O)*; Orn = NCCC[C@H](N)C(=O)O; AEEA = NCCOCCOCC(=O)O; Aib = CC(C)(N)C(=O)O

Assays:
Type in all cases: cell-based
hGIPR = target: T1, hGIPR (Homo sapiens, UniProt P48546); experiment: Functional cAMP formation (HTRF) in HEK-293 clonal cells expressing hGIPR, 0.1% bovine casein, without or with 1.0% human serum albumin; settings: for EC50: cAMP, 0.1% bovine casein (no human serum albumin), geometric mean
T1 construct: expressed in transfected cells
T1 sequence (P48546 22-466): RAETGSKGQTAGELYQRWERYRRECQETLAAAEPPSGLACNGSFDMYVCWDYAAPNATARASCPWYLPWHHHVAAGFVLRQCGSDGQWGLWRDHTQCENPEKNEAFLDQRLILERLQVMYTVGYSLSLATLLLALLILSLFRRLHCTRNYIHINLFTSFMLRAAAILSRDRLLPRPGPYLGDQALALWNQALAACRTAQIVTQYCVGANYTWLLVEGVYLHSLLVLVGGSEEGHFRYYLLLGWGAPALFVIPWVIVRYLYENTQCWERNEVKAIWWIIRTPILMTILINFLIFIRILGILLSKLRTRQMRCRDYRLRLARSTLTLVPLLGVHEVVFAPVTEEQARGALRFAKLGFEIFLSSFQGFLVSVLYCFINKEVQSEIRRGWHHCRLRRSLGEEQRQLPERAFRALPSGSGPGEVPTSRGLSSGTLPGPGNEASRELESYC
How it was run: (§1)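 Cells were stimulated with peptide for 30 min at 37° C, then intracellular cAMP was measured by competitive HTRF (665/620 nm ratio) and converted to nM using a cAMP standard curve. Relative EC50 and Emax came from four-parameter logistic fits of percent maximal response against peptide concentration.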

hGCGR = target: T2, hGCGR (Homo sapiens, UniProt P47871); experiment: Functional cAMP formation (HTRF) in HEK-293 clonal cells expressing hGCGR, 0.1% bovine casein, without or with 1.0% human serum albumin
T2 construct: expressed in transfected cells
How it was run: as §1

hGLP-1R = hGLP-1R (Homo sapiens, UniProt P43220); experiment: Functional cAMP formation (HTRF) in HEK-293 clonal cells expressing hGLP-1R, 0.1% bovine casein, without or with 1.0% human serum albumin; design: expressed in transfected cells; settings: for EC50: cAMP
How it was run: as §1

[1] = HEK293, cAMP, 37° C., 0.1% bovine casein and 1.0% human serum albumin, percent of maximal response to GIP(1-42)NH2, read-out: hGIPR Emax, % ± SEM
[2] = 37° C., read-out: hGIPR EC50, nM (SEM, n)
[3] = cAMP, 37° C., 0.1% bovine casein (no human serum albumin), geometric mean, read-out: hGCGR EC50, nM (SEM, n)
[4] = cAMP, 37° C., 0.1% bovine casein and 1.0% human serum albumin, geometric mean (SEM, n), read-out: hGCGR EC50, nM (SEM, n)
[5] = 37° C., 0.1% bovine casein (no human serum albumin), geometric mean, read-out: hGLP-1R EC50, nM (SEM, n)
[6] = 37° C., 0.1% bovine casein and 1.0% human serum albumin, geometric mean (SEM, n), read-out: hGLP-1R EC50, nM (SEM, n)
[7] = HEK293, read-out: hGIPR Emax, % ± SEM, percent of maximal response to GIP(1-42)NH2, 37° C., 0.1% bovine casein, arithmetic mean
[8] = hGCGR EC50, nM (SEM, n), cAMP, incubated at 37° C., 0.1% bovine casein (no human serum albumin), geometric mean
[9] = HEK293, read-out: hGLP-1R Emax, % ± SEM, percent of maximal response to GLP-1(7-36)NH2, 37° C., 0.1% bovine casein, arithmetic mean
[10] = hGLP-1R EC50, nM (SEM, n), incubated at 37° C., 0.1% bovine casein (no human serum albumin), geometric mean

T2 sequence (P47871 26-477): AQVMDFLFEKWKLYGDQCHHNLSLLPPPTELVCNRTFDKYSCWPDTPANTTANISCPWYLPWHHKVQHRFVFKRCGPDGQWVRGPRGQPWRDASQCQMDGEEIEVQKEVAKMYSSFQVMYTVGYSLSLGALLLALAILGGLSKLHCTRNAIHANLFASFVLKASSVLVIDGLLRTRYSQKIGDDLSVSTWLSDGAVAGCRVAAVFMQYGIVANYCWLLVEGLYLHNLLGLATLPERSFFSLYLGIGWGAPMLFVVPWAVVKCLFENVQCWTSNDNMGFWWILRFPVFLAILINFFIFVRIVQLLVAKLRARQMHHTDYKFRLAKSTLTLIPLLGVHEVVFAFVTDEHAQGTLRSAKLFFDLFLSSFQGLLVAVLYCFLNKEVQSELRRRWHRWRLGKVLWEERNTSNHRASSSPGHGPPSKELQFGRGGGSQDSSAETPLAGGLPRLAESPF
hGLP-1R, sequence (P43220 24-463): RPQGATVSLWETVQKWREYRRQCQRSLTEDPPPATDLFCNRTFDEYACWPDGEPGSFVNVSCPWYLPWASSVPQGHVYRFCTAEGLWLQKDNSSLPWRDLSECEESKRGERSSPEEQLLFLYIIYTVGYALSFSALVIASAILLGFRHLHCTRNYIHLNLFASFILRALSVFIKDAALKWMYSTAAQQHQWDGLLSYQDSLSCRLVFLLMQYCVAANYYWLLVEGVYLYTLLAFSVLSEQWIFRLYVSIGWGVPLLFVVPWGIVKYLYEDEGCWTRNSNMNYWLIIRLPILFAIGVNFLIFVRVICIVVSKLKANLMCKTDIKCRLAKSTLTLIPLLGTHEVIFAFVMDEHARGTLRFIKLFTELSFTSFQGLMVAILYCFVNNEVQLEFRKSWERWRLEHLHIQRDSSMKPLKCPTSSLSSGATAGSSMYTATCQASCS

Structure (SMILES)	Emax (hGIPR; [1]) [%]	Emax (hGIPR; HEK293, cAMP, 37° C., 0.1% bovine casein, percent of maximal response to GIP(1-42)NH2, arithmetic mean, read-out: hGIPR Emax, % ± SEM) [%]	EC50 (hGIPR; [2]) [nM]	EC50 (hGCGR; [3]) [nM]	EC50 (hGCGR; [4]) [nM]	Emax (hGLP-1R; HEK293, cAMP, 37° C., 0.1% bovine casein, percent of maximal response to GLP-1(7-36)NH2, arithmetic mean, read-out: hGLP-1R Emax, % ± SEM) [%]	EC50 (hGLP-1R; [5]) [nM]	EC50 (hGLP-1R; [6]) [nM]	Emax (hGIPR; [7]) [%]	EC50 (hGCGR; [8]) [nM]	Emax (hGLP-1R; [9]) [%]	EC50 (hGLP-1R; [10]) [nM]	Emax (hGIPR; HEK293, read-out: hGIPR Emax, % ± SEM, 0.1% bovine casein and 1.0% human serum albumin, 37° C., percent of maximal response to GIP(1-42)NH2) [%]	EC50 (hGIPR; hGIPR EC50, nM (SEM, n), incubated at 37° C.) [nM]	EC50 (hGCGR; hGCGR EC50, nM (SEM, n), 0.1% bovine casein and 1.0% human serum albumin, 37° C., geometric mean) [nM]	Emax (hGLP-1R; HEK293, read-out: hGLP-1R Emax, % ± SEM, 0.1% bovine casein and 1.0% human serum albumin, 37° C., percent of maximal response to GLP-1(7-36)NH2) [%]	Emax (hGLP-1R; HEK293, cAMP, 37° C., 0.1% bovine casein and 1.0% human serum albumin, percent of maximal response to GLP-1(7-36)NH2, read-out: hGLP-1R Emax, % ± SEM) [%]
CC[C@H](C)[C@H](NC(=O)[C@H](CC(C)C)NC(=O)[C@](C)(Cc1ccc(O)cc1)NC(=O)[C@@H](CCC(=O)O)NC(=O)[C@@H](NC(=O)[C@H](Cc1ccccc1)NC(=O)[C@H](CCC(=O)O)NC(=O)C(C)(C)NC(=O)[C@H](CCC(N)=O)NC(=O)[C@H](C)NC(=O)[C@H](CCCCNC(=O)COCCOCCNC(=O)COCCOCCNC(=O)CCCCCCCCCCCCC(=O)O)NC(=O)[C@H](CCCN)NC(=O)[C@H](CC(=O)O)NC(=O)[C@H](CC(C)C)NC(=O)[C@](C)(CC(C)C)NC(=O)[C@@H](NC(=O)C(C)(C)NC(=O)[C@H](Cc1ccc(O)cc1)NC(=O)[C@H](CC(=O)O)NC(=O)[C@H](CO)NC(=O)[C@@H](NC(=O)[C@](C)(Cc1ccccc1F)NC(=O)[C@@H](NC(=O)CNC(=O)[C@H](CCC(=O)O)NC(=O)C(C)(C)NC(=O)[C@@H](N)Cc1ccc(O)cc1)[C@@H](C)O)[C@@H](C)O)[C@@H](C)CC)[C@@H](C)CC)C(=O)N[C@@H](CCCCNC(=O)COCCOCCNC(=O)COCCOCCNC(=O)CCCCCCCCCCCCC(=O)O)C(=O)NCC(=O)NCC(=O)N1CCC[C@H]1C(=O)N[C@@H](CO)C(=O)N[C@@H](CO)C(=O)NCC(=O)N[C@@H](C)C(=O)N1CCC[C@H]1C(=O)N1CCC[C@H]1C(=O)N1CCC[C@H]1C(=O)N[C@@H](CO)C(N)=O [Example 388]	82.1	98.3	0.0103	> 9950	> 9950	95.4	0.292	6.31									
CC[C@H](C)[C@H](NC(=O)[C@H](CC(C)C)NC(=O)[C@](C)(Cc1ccc(O)cc1)NC(=O)[C@H](CCCCNC(=O)COCCOCCNC(=O)COCCOCCNC(=O)[C@@H](N)CCCCNC(=O)CCCCCCCCCCCCC(=O)O)NC(=O)[C@@H](NC(=O)[C@H](Cc1ccccc1)NC(=O)[C@H](CCC(=O)O)NC(=O)C(C)(C)NC(=O)[C@H](CCC(N)=O)NC(=O)[C@H](C)NC(=O)[C@H](CCCCNC(=O)COCCOCCNC(=O)COCCOCCNC(=O)[C@@H](N)CCCCNC(=O)CCCCCCCCCCCCC(=O)O)NC(=O)[C@H](CCCN)NC(=O)[C@H](CC(=O)O)NC(=O)[C@H](CC(C)C)NC(=O)[C@](C)(CC(C)C)NC(=O)[C@@H](NC(=O)C(C)(C)NC(=O)[C@@H](NC(=O)[C@H](CC(=O)O)NC(=O)[C@H](CO)NC(=O)[C@@H](NC(=O)[C@](C)(Cc1ccccc1F)NC(=O)[C@@H](NC(=O)CNC(=O)[C@H](CCC(=O)O)NC(=O)C(C)(C)NC(=O)[C@@H](N)Cc1ccc(O)cc1)[C@@H](C)O)[C@@H](C)O)C(C)C)[C@@H](C)CC)[C@@H](C)CC)C(=O)N[C@@H](CCC(=O)O)C(=O)NCC(=O)NCC(=O)N1CCC[C@H]1C(=O)N[C@@H](CO)C(=O)N[C@@H](CO)C(=O)NCC(=O)N[C@@H](C)C(=O)N1CCC[C@H]1C(=O)N1CCC[C@H]1C(=O)N1CCC[C@H]1C(=O)N[C@@H](CO)C(N)=O [Example 166]									97	> 9950	90.3	0.192					
CC[C@H](C)[C@H](NC(=O)[C@H](CCCN)NC(=O)[C@H](CC(=O)O)NC(=O)[C@H](CC(C)C)NC(=O)[C@](C)(CC(C)C)NC(=O)[C@@H](NC(=O)C(C)(C)NC(=O)[C@H](Cc1ccc(O)cc1)NC(=O)[C@H](CC(=O)O)NC(=O)[C@H](CO)NC(=O)[C@@H](NC(=O)[C@](C)(Cc1ccccc1F)NC(=O)[C@@H](NC(=O)CNC(=O)[C@H](CCC(=O)O)NC(=O)C(C)(C)NC(=O)[C@@H](N)Cc1ccc(O)cc1)[C@@H](C)O)[C@@H](C)O)[C@@H](C)CC)C(=O)N[C@@H](C)C(=O)N[C@@H](CCC(N)=O)C(=O)NC(C)(C)C(=O)N[C@@H](CCCCNC(=O)COCCOCCNC(=O)COCCOCCNC(=O)CC[C@H](NC(=O)CCCCCCCCCOc1ccc(C(=O)O)cc1)C(=O)O)C(=O)N[C@@H](Cc1ccccc1)C(=O)N[C@H](C(=O)N[C@H](CCC(=O)O)C(=O)N[C@@](C)(Cc1ccc(O)cc1)C(=O)N[C@@H](CC(C)C)C(=O)N[C@H](C(=O)N[C@@H](CCC(=O)O)C(=O)NCC(=O)NCC(=O)N1CCC[C@H]1C(=O)N[C@@H](CO)C(=O)N[C@@H](CO)C(=O)NCC(=O)N[C@@H](C)C(=O)N1CCC[C@H]1C(=O)N1CCC[C@H]1C(=O)N1CCC[C@H]1C(=O)N[C@@H](CO)C(=O)N[C@@H](CCCCNC(=O)COCCOCCNC(=O)COCCOCCNC(=O)CC[C@H](NC(=O)CCCCCCCCCOc1ccc(C(=O)O)cc1)C(=O)O)C(N)=O)[C@@H](C)CC)[C@@H](C)CC [Example 241] (H-Y[Aib]EGT[αMePhe(2-F)]TSDY[Aib]I[αMeL]LD[Orn]IAQ[Aib]K([AEEA-AEEA-γGlu-Decanoyl(10-(4-HOOC-PhO))])FI[dE][αMeY]LIEGGPSSGAPPPSK([AEEA-AEEA-γGlu-Decanoyl(10-(4-HOOC-PhO))])-NH2; N-terminus assumed)									105	> 9950	91	0.362	84.9	0.0213	> 9950	105	
CCCCCCCCCCCC(=O)N[C@@H](CCC(=O)NCCOCCOCC(=O)NCCOCCOCC(=O)NCCCC[C@H](NC(=O)CNC(=O)[C@H](CC(=O)O)NC(=O)[C@H](CC(C)C)NC(=O)[C@](C)(CC(C)C)NC(=O)[C@@H](NC(=O)C(C)(C)NC(=O)[C@H](CCCCNC(=O)COCCOCCNC(=O)COCCOCCNC(=O)CC[C@H](NC(=O)CCCCCCCCCCC)C(=O)O)NC(=O)[C@H](CC(=O)O)NC(=O)[C@H](CO)NC(=O)[C@@H](NC(=O)[C@](C)(Cc1ccccc1F)NC(=O)[C@@H](NC(=O)CNC(=O)[C@H](CCC(=O)O)NC(=O)C(C)(C)NC(=O)[C@@H](N)Cc1ccc(O)cc1)[C@@H](C)O)[C@@H](C)O)[C@@H](C)CC)C(=O)N[C@@H](C)C(=O)N[C@@H](CCC(N)=O)C(=O)NC(C)(C)C(=O)N[C@@H](CCC(=O)O)C(=O)N[C@@H](Cc1ccccc1)C(=O)N[C@H](C(=O)N[C@H](CCC(=O)O)C(=O)N[C@@](C)(Cc1ccc(O)cc1)C(=O)N[C@@H](CC(C)C)C(=O)N[C@H](C(=O)N[C@@H](CCC(=O)O)C(=O)NCC(=O)NCC(=O)N1CCC[C@H]1C(=O)N[C@@H](CO)C(=O)N[C@@H](CO)C(=O)NCC(=O)N[C@@H](C)C(=O)N1CCC[C@H]1C(=O)N1CCC[C@H]1C(=O)N1CCC[C@H]1C(=O)N[C@@H](CO)C(N)=O)[C@@H](C)CC)[C@@H](C)CC)C(=O)O [Example 445] (H-Y[Aib]EGT[αMePhe(2-F)]TSDK([AEEA-AEEA-γGlu-Lauroyl])[Aib]I[αMeL]LDGK([AEEA-AEEA-γGlu-Lauroyl])AQ[Aib]EFI[dE][αMeY]LIEGGPSSGAPPPS-NH2; N-terminus assumed)	91.4		0.00728	> 9950	> 9950		0.0781	13.1									100
